Results: publication PMC12064818, “A general assay platform to study protein pharmacology using ligand-dependent structural dynamics” (Nature Communications, 2025)
Like-named read-outs stand apart in the source and are kept apart here.

Key:
NLuc = target: T1, NLuc (Oplophorus gracilirostris, UniProt Q9GV45, A31E/A60N/A81I/F95D/I117V/K70R/L54V/L99Q/M102K/N193R/P142E/Q151K/Q38R/Q45L/V71I/Y165I); assay type: biochemical; settings: - ATP
T1 construct: His tag (inferred from IMAC purification); made in house; host or cells: E. coli
Experimental: Compounds and controls were added to plates as described in Supplementary Data 8. Nano-Glo luciferase assay reagent (Promega) was prepared fresh according to manufacturer’s protocol, filtered and added at 3 μL per well across assay plates with a BioRaptr2 dispenser. Enzyme was incubated with Nano-Glo reagent for 10 min and NLuc luminescence was read on a ViewLux CCD imager (PerkinElmer), with 1 s exposure with medium gain and 2x binning. Data were normalized to average no enzyme control as 100% enzyme inhibition and average DMSO neutral control. See Supplementary Table 4 for additional details.
Supplementary Table 4. […]
Sequence Param eter Value Description […]
(§1) 5 Detector ViewLux Read plate lum inescence (Exposure = 1- 10 sec; Gain = Medium -high; Speed = Slow;
Dispensing solution was diluted in 1X PBS, pH 7.4.
NanoLuc luciferase (NLuc) enzym atic lum inescence assay […]
Nano-Glo luciferase assay reagent (Prom ega, Cat # N1120) prepared according to m anufacturer’s recom m endations,
4 com ponents stored at -30 °C until use, and reagent prepared fresh for each assay.
syringe filter prior to dispense.

P. pyralis FLuc = P. pyralis FLuc (Photinus pyralis, UniProt P08659); test: FLuc enzymatic luminescence assay, P. pyralis FLuc; assay type: biochemical; settings: FLuc enzymatic assay; for IC50: read-out: IC50 or SDR50 (mM) FLuc E
Experimental: The enzyme activity of FLuc-N-HiBiT, FLuc-C-HiBiT, and FLuc-C-NLuc was measured similar to P. pyralis firefly luciferase (FLuc) as previously described. […] Compounds and controls were added to each plate as described in Supplementary Data 8 with a Hornet pintool system (Wako Automation). Compounds were incubated with respective enzymes for 30–60 min at room temperature protected from light and covered by solid metal lid to prevent evaporation. […] Luciferin was incubated with FLuc enzyme for 5 min before FLuc activity was then measured on a ViewLux CCD imager (PerkinElmer), with exposure times up to ten seconds with medium to high gain settings. Data were normalized to average no enzyme control as 100% enzyme inhibition and average DMSO neutral control. See Supplementary Table 4 for additional details.
Assays were run in the presence (solid symbols) or absence
(open symbols) of 10 µM ATP. Corresponding SMIL E S for NC GC IDs and source data are provided in
Supplementary Data 3 and as a Source Data file. 10
Supplementary Table 4. Protocol for Firefly luciferase (FLuc) and NanoLuc (NLuc) enzymatic
Supplementary Table 4: Protocol for Firefly luciferase (FLuc) and NanoLuc (NLuc) enzym atic lum inescence assay
Firefly luciferase (FLuc) enzym atic lum inescence assay
Sequence Param eter Value Description
No enzym e control (colum n 1) and enzym e solution (1- 10 nM FLuc enzym e) in FLuc assay
1 Reagent 4 µLbuffer; white/solid bottom , m edium bind, high base plates (Greiner), dispensed with BioRaptr
com pounds transferred to respective colum ns with Pintool
2b Test Com pounds 23 nLconcentration range) in colum ns 5- 48; com pounds transferred to respective wells with
3 Incubation 30 m in Incubate enzym e + com pounds at am bient tem p for 30 m in, protected from light
4 Reagent 3 µLAdd 3 µL of D-luciferin substrate solution to each well (final concentration 10 µM); dispensed
as §1
Dispensing solution was diluted in 1X PBS, pH 7.4. […]

[1] = target: FLuc-C-NLuc (firefly luciferase) (Photinus pyralis, UniProt P08659, form not given/L550V); test: SDR assay, FLuc-C-NLuc; settings: - ATP
[2] = target: FLuc-C-HiBiT (firefly luciferase) (Photinus pyralis, UniProt P08659, form not given/L550V); test: SDR assay, FLuc-C-HiBiT; settings: SDR max. response, clade S
FLuc-C-HiBiT = target: T2, FLuc-C-HiBiT (Photinus pyralis, UniProt P08659); test: biochemical; settings: enzyme activity, 10 uM ATP; read-out: IC50 or SDR50 (mM) / FLuc E
T2 construct: firefly luciferase with C-terminal HiBiT tag, E. coli expressed

[3] = target: FLuc-N-HiBiT (firefly luciferase) (Photinus pyralis, UniProt P08659, form not given/L550V); test: SDR assay, FLuc-N-HiBiT; settings: substituted indoline (clade A'); for % Activity (max response, + ATP) / % Activity (max response, - ATP): SDR
Chain of FLuc-N-HiBiT (firefly luciferase) (P08659 2-550 L550V, form open): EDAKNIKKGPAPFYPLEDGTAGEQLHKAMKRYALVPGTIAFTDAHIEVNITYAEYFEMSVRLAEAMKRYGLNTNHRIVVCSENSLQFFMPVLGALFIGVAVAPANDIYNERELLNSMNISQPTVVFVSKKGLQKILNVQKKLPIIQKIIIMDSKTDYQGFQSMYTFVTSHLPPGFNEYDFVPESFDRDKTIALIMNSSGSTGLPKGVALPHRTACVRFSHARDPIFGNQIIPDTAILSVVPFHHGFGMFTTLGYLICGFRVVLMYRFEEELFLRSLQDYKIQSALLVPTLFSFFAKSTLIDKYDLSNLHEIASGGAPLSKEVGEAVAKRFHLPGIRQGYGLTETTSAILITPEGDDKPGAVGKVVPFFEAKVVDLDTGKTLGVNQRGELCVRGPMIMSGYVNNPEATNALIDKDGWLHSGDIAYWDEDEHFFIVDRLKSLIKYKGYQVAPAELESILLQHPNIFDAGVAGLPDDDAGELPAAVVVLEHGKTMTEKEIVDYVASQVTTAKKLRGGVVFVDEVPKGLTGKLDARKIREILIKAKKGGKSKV

T1 sequence (Q9GV45 other isoform, or with tags, fused parts or gaps with the stated changes): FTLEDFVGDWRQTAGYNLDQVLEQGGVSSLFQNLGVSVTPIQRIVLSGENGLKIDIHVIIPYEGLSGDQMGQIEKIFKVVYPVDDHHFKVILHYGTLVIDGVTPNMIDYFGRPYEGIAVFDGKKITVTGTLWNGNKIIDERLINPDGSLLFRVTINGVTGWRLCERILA
Chain of FLuc-C-NLuc (firefly luciferase) (P08659 2-550 L550V, form open): as the sequence (P08659 2-550 L550V, form open) above
Chain of FLuc-C-HiBiT (firefly luciferase) (P08659 2-550 L550V, form open): as above
Chain of P. pyralis FLuc (P08659 whole entry): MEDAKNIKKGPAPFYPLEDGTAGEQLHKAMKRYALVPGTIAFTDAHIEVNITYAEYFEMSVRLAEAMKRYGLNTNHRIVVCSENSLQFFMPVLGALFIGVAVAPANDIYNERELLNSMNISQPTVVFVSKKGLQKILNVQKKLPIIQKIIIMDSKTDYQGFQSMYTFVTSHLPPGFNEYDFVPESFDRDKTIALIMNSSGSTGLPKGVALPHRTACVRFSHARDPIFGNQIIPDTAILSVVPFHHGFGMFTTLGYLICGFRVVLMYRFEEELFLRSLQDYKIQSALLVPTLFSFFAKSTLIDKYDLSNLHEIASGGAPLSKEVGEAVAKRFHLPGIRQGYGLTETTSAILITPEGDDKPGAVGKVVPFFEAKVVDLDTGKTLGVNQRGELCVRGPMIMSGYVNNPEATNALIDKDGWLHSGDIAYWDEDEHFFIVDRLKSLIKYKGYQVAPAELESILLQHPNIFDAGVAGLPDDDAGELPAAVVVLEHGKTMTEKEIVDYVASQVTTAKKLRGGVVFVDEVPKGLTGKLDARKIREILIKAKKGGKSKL
T2 sequence (P08659 whole entry, looked up): as the sequence (P08659 whole entry) above

SMILES | Efficacy (%) NLuc (- ATP) (NLuc) [%] | Efficacy (%) FLuc E (P. pyralis FLuc; Clade S follow-up) [%] | Efficacy (%) FLuc-C-NLuc SDR (-ATP) [1] [%] | % Activity (max response, + ATP) [2] [%] | % Activity (max response, - ATP) [2] [%] | pIC50 or pSDR50 FLuc E (P. pyralis FLuc; Clade S follow-up) | IC50 (P. pyralis FLuc; Clade S follow-up) [mM] | pIC50 or pSDR50 FLuc E (P. pyralis FLuc) | IC50 (P. pyralis FLuc) [mM] | IC50 (FLuc-C-HiBiT) [µM] | % Activity (max response, + ATP) ([3]; + ATP) [%] | % Activity (max response, - ATP) ([3]; - ATP) [%] | pSDR50 (clade A') ([3]; + ATP) | pSDR50 (clade A') ([3]; - ATP)
O=C(NCc1ccc(F)cc1F)C1CCN(C(=O)c2ncn3c2COC(c2ccc(F)cc2)C3)CC1 (centres unmarked) [NCGC00449819-01] | 0.00 | -12.89 | 0.00 | 18.59 | 0.00 |  |  |  |  |  |  |  |  | 
O=C(NC1CCCC1)C1CCN(C(=O)c2ncn3c2COC(c2ccc(Cl)cc2)C3)CC1 (centres unmarked) [NCGC00449843-01] | 0.00 | -13.86 | 0.00 | 0.00 | 0.00 |  |  |  |  |  |  |  |  | 
Cc1ccc(NC(=O)C2CCN(C(=O)c3ncn4c3COC(c3ccc(F)cc3)C4)CC2)c(F)c1 (centres unmarked) [NCGC00449944-01] | 0.00 | -69.67 | 0.00 | 140.99 | 7.55 | 4.96 | 0.0111 |  |  |  |  |  |  | 
Cc1ccccc1CNC(=O)C1CCN(C(=O)c2ncn3c2COC(c2ccccc2)C3)CC1 (centres unmarked) [NCGC00449798-01] | 0.00 | -85.12 | 0.00 | 370.72 | 0.00 |  |  | 5.26 | 0.00555 |  |  |  |  | 
O=C(Nc1ccc(F)c(F)c1)C1CCN(C(=O)c2ncn3c2COC(c2ccc(F)cc2)C3)CC1 (centres unmarked) [NCGC00449940-01] | 0.00 | -73.07 | 0.00 | 125.80 | 0.00 | 4.96 | 0.0111 |  |  |  |  |  |  | 
Cc1ccc(NC(=O)C2CCN(C(=O)c3ncn4c3COC(c3ccc(F)cc3)C4)CC2)c(C)c1 (centres unmarked) [NCGC00449930-01] | 0.00 | -45.61 | 0.00 | 67.53 | 0.00 | 4.96 | 0.0111 |  |  |  |  |  |  | 
O=C(NCc1ccccc1F)C1CCN(C(=O)c2ncn3c2COC(c2ccc(Cl)cc2)C3)CC1 (centres unmarked) [NCGC00449851-01] | 0.00 | -40.26 | 0.00 | 18.50 | 0.00 | 4.91 | 0.0124 |  |  |  |  |  |  | 
COc1ccc(C2Cn3cnc(C(=O)N4CCC(C(=O)NC5CCCC5)CC4)c3CO2)cc1 (centres unmarked) [NCGC00449859-01] | 0.00 | 0.00 | 0.00 | 0.00 | 0.00 |  |  |  |  |  |  |  |  | 
Cc1ccc(CNC(=O)C2CCN(C(=O)c3ncn4c3COC(c3ccc(F)cc3)C4)CC2)cc1 (centres unmarked) [NCGC00449814-01] | 0.00 | -11.84 | 0.00 | 17.69 | 0.00 |  |  |  |  |  |  |  |  | 
COc1ccc(C2Cn3cnc(C(=O)N4CCC(C(=O)NC5CCC(C)CC5)CC4)c3CO2)cc1 (centres unmarked) [NCGC00449861-01] | 0.00 | 0.00 | 0.00 | 14.50 | 0.00 |  |  |  |  |  |  |  |  | 
CC(NC(=O)c1cccc2c1CCN2C(=O)Nc1ccccc1)c1cccnc1 (centres unmarked) [NCGC00430104-01] |  |  |  |  |  |  |  |  |  | 1.76 | 120.10 | 19.02 | 5.53 | 4.71
O=C(NCCc1cccnc1)c1cccc2c1CCN2C(=O)Nc1ccc(F)cc1 [NCGC00430192-01] |  |  |  |  |  |  |  |  |  | 0.221 | 119.50 | 23.04 | 6.44 | 2.73
CCC(C)(C)NC(=O)c1cccc2c1CCN2C(=O)Nc1cccc(C)c1 [NCGC00430120-01] |  |  |  |  |  |  |  |  |  | 7.85 | 86.92 | 21.61 | 4.90 | 2.52
Cc1ccc(NC(=O)N2CCc3c(C(=O)NCc4ccco4)cccc32)cc1 [NCGC00430166-01] |  |  |  |  |  |  |  |  |  | 0.0495 | 127.00 | 89.24 | 7.11 | 5.17
COc1ccc(NC(=O)N2CCc3c(C(=O)N(C)Cc4ccco4)cccc32)cc1 [NCGC00430138-01] |  |  |  |  |  |  |  |  |  | 1.76 | 125.10 | 31.17 | 5.60 | 3.60
CCCCNC(=O)c1cccc2c1CCN2C(=O)Nc1ccccc1 [NCGC00430146-01] |  |  |  |  |  |  |  |  |  | 1.57 | 123.10 | 25.03 | 5.71 | 5.51
CCC(=O)N1CCc2c(C(=O)O)cccc21 [NCGC00432605-01] |  |  |  |  |  |  |  |  |  | > 30 | 19.35 | 9.26 |  | 
COc1ccc(NC(=O)N2CCc3c(C(=O)NCCN4CCCCCC4)cccc32)cc1 [NCGC00430136-01] |  |  |  |  |  |  |  |  |  | 0.556 | 125.00 | 26.27 | 6.10 | 3.93
